≈ marks a conversion by molar mass, not a printed value. Calls of active or inactive are those of the source. The rule behind the calls is not given here.
Tests used:
Plasmodium yoelii [1] = test: Antimalarial activity against chloroquine-resistant Plasmodium yoelii N-67 infected in Swiss mouse assessed as inhibition of parasitemia at 50 mg/kg, po qd for 4 days relative to control; type: functional; details: N-67, 96 h
Plasmodium yoelii [2] = test: Inhibition of beta-hematin formation in Plasmodium yoelii infected Swiss mouse plasma after 16 hrs; type: functional
Plasmodium yoelii [3] = test: Antimalarial activity against chloroquine-resistant Plasmodium yoelii N-67 infected in Swiss mouse assessed as mouse survival at 50 mg/kg, po qd for 4 days measured on day 28; type: functional, organism-based; set-up: dose 50 mg/kg
Plasmodium falciparum [4] = test: Antiplasmodial activity against chloroquine-sensitive Plasmodium falciparum 3D7 after 72 hrs by SYBR Green-1 dye-based fluorescence assay; type: functional, organism-based; details: 3D7, 72 h
Plasmodium yoelii [5] = test: Antimalarial activity against chloroquine-resistant Plasmodium yoelii N-67 infected in Swiss mouse assessed as inhibition of parasitemia at 100 mg/kg, po qd for 4 days relative to control; type: functional; details: N-67, 96 h
Plasmodium falciparum [6] = test: Antiplasmodial activity against chloroquine-resistant Plasmodium falciparum K1 after 72 hrs by SYBR Green-1 dye-based fluorescence assay; type: functional, organism-based; details: K1, 72 h
[7] = Selectivity index, ratio of IC50 for African green monkey Vero cells to IC50 for Plasmodium falciparum; type: toxicity, cell-based; details: read-out: Ratio IC50
[8] = Inhibition of Plasmodium falciparum transketolase using fructose-6-phosphate as substrate by spectrophotometric analysis
Plasmodium yoelii [9] = test: Antimalarial activity against chloroquine-resistant Plasmodium yoelii N-67 infected in Swiss mouse assessed as mouse survival at 100 mg/kg, po qd for 4 days measured on day 28; type: functional, organism-based; set-up: dose 100 mg/kg

Structure (SMILES) | inhibition in vivo at 50 mg/kg (Plasmodium yoelii [1]) | IC50 (Plasmodium yoelii [2]) | Activity (Plasmodium yoelii [3]) | IC50 (Plasmodium falciparum [4]) | inhibition in vivo at 100 mg/kg (Plasmodium yoelii [5]) | IC50 (Plasmodium falciparum [6]) | selectivity ratio [7] | IC50 [8] | Activity (Plasmodium yoelii [9])
Clc1ccc2c(Nc3ccc(Nc4nc(NCCCN5CCOCC5)nc(N5CCOCC5)n4)cc3)ccnc2c1 | 98.4% | 2.98 µg/mL (≈ 5.17 µM) | inactive | 0.00276 µg/mL (≈ 0.00479 µM) | 100% | 0.00266 µg/mL (≈ 0.00462 µM) | 3320 |  | 
CN1CCN(c2nc(Nc3ccc(Nc4ccnc5cc(Cl)ccc45)cc3)nc(N3CCOCC3)n2)CC1 |  | 6.5 µg/mL (≈ 12.2 µM) |  | 0.00322 µg/mL (≈ 0.00605 µM) |  | 0.00286 µg/mL (≈ 0.00538 µM) | 121 |  | 
CCN1CCN(c2nc(Nc3ccc(Nc4ccnc5cc(Cl)ccc45)cc3)nc(Nc3cccc(Cl)c3)n2)CC1 |  | 2.06 µg/mL (≈ 3.51 µM) |  | 0.00211 µg/mL (≈ 0.0036 µM) |  | 0.00496 µg/mL (≈ 0.00846 µM) | 318 | 74.5 µM | 
Clc1ccc2c(Nc3ccc(Nc4nc(NCCCN5CCOCC5)nc(N5CCc6ccccc6C5)n4)cc3)ccnc2c1 |  | 2.09 µg/mL (≈ 3.36 µM) |  | 0.0203 µg/mL (≈ 0.0327 µM) |  | 0.0555 µg/mL (≈ 0.0892 µM) | 436 |  | 
Clc1ccc2c(Nc3ccc(Nc4nc(NCCN5CCOCC5)nc(N5CCOCC5)n4)cc3)ccnc2c1 |  | 9.82 µg/mL (≈ 17.5 µM) |  | 0.00587 µg/mL (≈ 0.0104 µM) |  | 0.0532 µg/mL (≈ 0.0946 µM) | 41.6 |  | 
O=C(O)C(=O)Cc1ccc(O)cc1 [4-HYDROXYPHENYLPYRUVIC ACID] |  |  |  |  |  |  |  | 103 µM | 
Fc1cccc(Nc2nc(Nc3ccc(Nc4ccnc5cc(Cl)ccc45)cc3)nc(N3CCCCC3)n2)c1 |  | 3.1 µg/mL (≈ 5.73 µM) |  | 0.129 µg/mL (≈ 0.238 µM) |  | 0.107 µg/mL (≈ 0.197 µM) | 75.1 |  | 
COc1cccc(Nc2nc(Nc3ccc(Nc4ccnc5cc(Cl)ccc45)cc3)nc(N3CCN(C)CC3)n2)c1 |  | 2.05 µg/mL (≈ 3.61 µM) |  | 0.00426 µg/mL (≈ 0.0075 µM) |  |  | 117 |  | 
CCN1CCN(c2nc(Nc3ccc(Nc4ccnc5cc(Cl)ccc45)cc3)nc(Nc3cccc(F)c3)n2)CC1 |  | 2.06 µg/mL (≈ 3.61 µM) |  | 0.00247 µg/mL (≈ 0.00433 µM) |  |  | 149 | 75 µM | 
CN1CCN(c2nc(Nc3ccc(Cl)cc3)nc(Nc3ccc(Nc4ccnc5cc(Cl)ccc45)cc3)n2)CC1 |  | 2.17 µg/mL (≈ 3.79 µM) |  | 0.0078 µg/mL (≈ 0.0136 µM) | 100% | 0.0352 µg/mL (≈ 0.0614 µM) | 66.7 |  | inactive
CCN1CCN(c2nc(Nc3ccc(Nc4ccnc5cc(Cl)ccc45)cc3)nc(Nc3ccc(OC)c(OC)c3)n2)CC1 |  | 2.45 µg/mL (≈ 4 µM) |  | 0.00258 µg/mL (≈ 0.00421 µM) |  | 0.0023 µg/mL (≈ 0.00376 µM) | 624 | 85.5 µM | 
Clc1cccc(Nc2nc(NCCCN3CCOCC3)nc(Nc3ccc(Nc4ccnc5cc(Cl)ccc45)cc3)n2)c1 |  | 4.56 µg/mL (≈ 7.4 µM) |  | 0.00382 µg/mL (≈ 0.0062 µM) |  | 0.00882 µg/mL (≈ 0.0143 µM) | 180 | 76.4 µM | 
CCN1CCN(c2nc(Nc3ccc(F)cc3)nc(Nc3ccc(Nc4ccnc5cc(Cl)ccc45)cc3)n2)CC1 |  | 2.64 µg/mL (≈ 4.63 µM) |  | 0.0111 µg/mL (≈ 0.0195 µM) |  | 0.0198 µg/mL (≈ 0.0347 µM) | 88.2 |  | 
Fc1ccc(Nc2nc(NCCCN3CCOCC3)nc(Nc3ccc(Nc4ccnc5cc(Cl)ccc45)cc3)n2)cc1 |  | 2.17 µg/mL (≈ 3.62 µM) |  | 0.0158 µg/mL (≈ 0.0264 µM) |  |  | 682 |  | 
COc1ccc(Nc2nc(NCCCN3CCOCC3)nc(Nc3ccc(Nc4ccnc5cc(Cl)ccc45)cc3)n2)cc1 |  | 2.34 µg/mL (≈ 3.82 µM) |  | 0.00381 µg/mL (≈ 0.00622 µM) |  | 0.155 µg/mL (≈ 0.253 µM) | 1310 | 72.7 µM | 
Clc1ccc2c(Nc3ccc(Nc4nc(NCCN5CCOCC5)nc(N5CCc6ccccc6C5)n4)cc3)ccnc2c1 |  | 2.08 µg/mL (≈ 3.42 µM) |  | 0.0452 µg/mL (≈ 0.0743 µM) |  |  | 1160 |  | 
COc1cccc(Nc2nc(NCCCN3CCOCC3)nc(Nc3ccc(Nc4ccnc5cc(Cl)ccc45)cc3)n2)c1 |  | 3.49 µg/mL (≈ 5.7 µM) |  | 0.00298 µg/mL (≈ 0.00487 µM) |  |  | 2500 |  | 
CCN1CCN(c2nc(Nc3ccc(Cl)cc3)nc(Nc3ccc(Nc4ccnc5cc(Cl)ccc45)cc3)n2)CC1 |  | 2.05 µg/mL (≈ 3.5 µM) |  | 0.00414 µg/mL (≈ 0.00706 µM) |  | 0.00981 µg/mL (≈ 0.0167 µM) | 67.6 |  | 
CN1CCN(c2nc(Nc3ccc(Nc4ccnc5cc(Cl)ccc45)cc3)nc(Nc3cccc(Cl)c3)n2)CC1 |  | 2.42 µg/mL (≈ 4.23 µM) |  | 0.00241 µg/mL (≈ 0.00421 µM) |  | 0.0169 µg/mL (≈ 0.0295 µM) | 361 | 80.2 µM | 
